Results as given in patent publication US20100034836A1, “COMPOSITIONS AND METHODS FOR THE DIAGNOSIS AND ALLEVIATION OF TUMOR” (priority 2006, published 2010).

Key:
tumor = details: nude mouse tumor model (Teicher et al. 2002); cited from earlier work
MEK1/2 = system: MEK1/2
Procedure: Experiments were performed to identify the TASK121 downstream signals that are important for TASK122 expression. A375, 928-MEL, COL0205 and SK23-MEL cell lines were characterized for TASK121 and RAS activating mutations and TASK122 expression was measured by immunoblotting of these tumors cells when cultured in the presence or absence of the MEK1/2 inhibitor, U0126 (Favata et al., J Biol Chem 273:18623-32 (1998)).

ΔTASK121^V600E-ER = ΔTASK121^V600E-ER (Mus musculus, UniProt P19785, G525R); details: NIH 3T3 ΔTASK121^V600E-ER cells, minimal media, 0-2000 nM 4OHT for 24 hours
Text: (§1) To identify genes that are regulated specifically in response to TASK121 activation and not as a result of full mitogenic stimulation, TASK121 was conditionally activated using the previously described estrogen receptor (ER) fusion protein system (Samuels et al., Mol Cell Biol 13:6241-52 (1993)). The catalytic domains of wild-type and oncogenic human TASK121 (denoted as ΔTASK121 and ΔTASK121^V600E, respectively) were fused to a variant of the murine ER hormone-binding domain in which a G525R mutation switches responsiveness from endogenous estrogen to a synthetic antagonist, 4-hydroxytamoxifen (4OHT) (Danielian, et al., Mol Endocrinol 7:232-40 (1993)). […] NIH 3T3 cells expressing ΔTASK121-ER, ΔTASK121^V600E-ER or empty vector were derived by retroviral infection and several independent clones were characterized to ensure against a clonal selection bias. To determine effective doses for inducing TASK121 kinase activity, ΔTASK121-ER and ΔTASK121^V600EER cells were cultured in minimal media and stimulated with 0-2000 nM 4OHT for 24 hours. […] Accumulation of ΔTASK121-ER and ΔTASK121^V600E-ER chimeric proteins and corresponding ERK1/2 phosphorylation were detected by immunoblotting.

ΔTASK121-ER = ΔTASK121-ER (Mus musculus, UniProt P19785, G525R); details: NIH 3T3 ΔTASK121-ER cells, minimal media, 0-2000 nM 4OHT for 24 hours
Text: as §1

ΔTASK121^V600E-ER cells = assay: Morphological transformation of 3T3 cells upon 4OHT induction; format: cell-based; details: 200 nM 4OHT, within 24 hours
endogenous TASK121 = assay: Dox-induced shRNA knockdown in A375 melanoma cells, immunoblotting; format: cell-based
Text: The regulation of TASK122 by TASK 121 was directly addressed in an RNAi knockdown experiment. A375 melanoma cells, which contain an endogenous TASK121^V600E allele, were infected with a retrovirus expressing either TASK121 specific shRNAs or a control firefly Luciferase shRNA. Hairpin oligonucleotides used in this study are as follows:
In this system, the Tet repressor protein binds a modified polIII promoter thereby preventing shRNA expression. However, in the presence of a tetracycline analog, doxycycline (Dox), the Tet repressor protein is released from the promoter resulting in shRNA transcription and knockdown of endogenous TASK121 or luciferase expression.

[1] = 10 μM U0126, A375, 928-MEL, COL0205 and SK23-MEL cell lines

Chain of ΔTASK121^V600E-ER (P19785 315-551 G525R): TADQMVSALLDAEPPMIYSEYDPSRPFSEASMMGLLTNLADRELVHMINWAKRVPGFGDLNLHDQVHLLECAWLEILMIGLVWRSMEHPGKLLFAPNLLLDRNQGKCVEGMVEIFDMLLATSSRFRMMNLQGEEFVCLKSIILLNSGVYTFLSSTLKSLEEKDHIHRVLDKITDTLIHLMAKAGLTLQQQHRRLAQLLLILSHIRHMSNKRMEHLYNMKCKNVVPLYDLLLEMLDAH
Chain of ΔTASK121^V600E-ER (P15056 457-717 V600E partner limits assumed): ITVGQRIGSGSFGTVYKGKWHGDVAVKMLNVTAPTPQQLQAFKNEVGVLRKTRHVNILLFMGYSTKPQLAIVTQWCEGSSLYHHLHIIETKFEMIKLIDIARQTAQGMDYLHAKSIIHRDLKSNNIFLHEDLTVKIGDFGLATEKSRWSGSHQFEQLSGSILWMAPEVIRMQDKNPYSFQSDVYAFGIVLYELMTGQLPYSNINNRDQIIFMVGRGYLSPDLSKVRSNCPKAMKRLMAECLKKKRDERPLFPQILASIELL
Chain of ΔTASK121-ER (P19785 315-551 G525R limits assumed): as the sequence (P19785 315-551 G525R) above
Chain of ΔTASK121-ER (P15056 457-717 partner limits assumed): as the sequence (P15056 457-717 V600E partner limits assumed) above, with E144V counted along it

Cl.Cn1cc(C2=C(c3cn(C4CCN(Cc5ccccn5)CC4)c4ccccc34)C(=O)NC2=O)c2ccccc21 [317615-HCL]
anti-tumor effect (tumor): anti-tumor effect

N#CC(=C(/N)Sc1ccccc1N)/C(C#N)=C(\N)Sc1ccccc1N [U0126]
TASK122 expression (MEK1/2; 10 μM U0126, inhibition of ERK1/2 phosphorylation): abolished | ERK1/2 phosphorylation (MEK1/2; [1]): decreased | total ERK2 levels (MEK1/2; [1]): unaffected

4-hydroxytamoxifen [4OHT]
4OHT concentration at which TASK121-mediated signaling was maximal (ΔTASK121^V600E-ER): 10 nM | 4OHT concentration at which TASK121-mediated signaling was maximal (ΔTASK121-ER): 100 nM | cell morphology (ΔTASK121^V600E-ER cells): refractile and spindle-shaped phenotype

B1: TASK121 shRNA: hairpin oligonucleotides SEQ ID NO: 7 (sense) and SEQ ID NO: 8 (antisense), retrovirally expressed, Tet-regulated (nucleic acid)
sense: GATCCCCAGAATTGGATCTGGATCATTTCAAGAGAATGATCCAGATCCAATTCTTTTTTTGGAAA
antisense: AGCTTTTCCAAAAAAAGAATTGGATCTGGATCATTCTCTTGAAATGATCCAGATCCAATTCTGGG
modifications: the letters are possibly those of the target site
TASK122 levels (endogenous TASK121): significant reduction | phosphorylated ERK1/2 (endogenous TASK121): significant reduction | total ERK2 levels (endogenous TASK121): remained unchanged

B2: Luciferase shRNA: control firefly Luciferase shRNA, SEQ ID NO: 9 (sense) and 10 (antisense) (nucleic acid)
sense: GATCCCCCTTACGCTGAGTACTTCGATTCAAGAGATCGAAGTACTCAGCGTAAGTTTTTTGGAAA
antisense: AGCTTTTCCAAAAAACTTACGCTGAGTACTTCGATCTCTTGAATCGAAGTACTCAGCGTAAGGGG
modifications: the letters are possibly those of the target site
TASK122 levels (endogenous TASK121): did not alter
